Assay results published in US20120321647A1, “STRUCTURED RNA MOTIFS AND COMPOUNDS AND METHODS FOR THEIR USE” (YALE UNIVERSITY, priority 2010, published 2012).
pKd: −log10 of the molar value. Values joined by “and” are separate entries in the source; they are usually repeats but may differ in a detail not shown here. Equal values may be shown once. Read-outs that look alike come from different tables or passages of the source. Peptide text beside a SMILES is read from it.

Key:
[1] = system: second representative of the glnA motif from a marine metagenomic sequence; assay: In-line probing of a second glnA motif representative; type: binding; settings: for binding by the RNA: at 1 mM (data not shown)
From the text: (§1) RNAs were 5′-^32P radiolabeled and subjected to in-line probing analyses, which have been described in detail previously (Soukup et al. Relationship between internucleotide linkage geometry and the stability of RNA. RNA 1999; 5:1308-1325; Regulski E E, Breaker R R. In-line probing analysis of riboswitches. Methods Mol Biol 2008; 419:53-67). Briefly, 5′ triphosphates were removed from the RNAs using alkaline phosphatase (Roche) according to the manufacturer's protocol. The dephosphorylated RNAs were 5′-^32P radiolabeled by incubation with [γ-^32P] ATP and T4 polynucleotide kinase (New England Biolabs), following the manufacturer's directions. Denaturing PAGE (6%) was subsequently employed to purify the RNAs as described above. The radiolabeled RNAs were then incubated at 23° C. in a solution containing 75 mM Tris-HCl (pH 8.3 at 23° C.), 20 mM MgCl2, 100 mM KCl, and various different potential ligands (see results section for full list) at concentrations ranging from 1 μM to 10 mM in most cases. When RNAs were subjected to in-line probing with 100 mM L-glutamate, the amino acid replaced the Tris-HCl as the buffering agent. HCl and NaOH were used to adjust this modified in-line probing solution to pH 8.3.
(§2) After incubating for approximately 40 hours, the products of in-line probing reactions were separated by denaturing 10% PAGE. The gels were then dried and imaged using a Storm 820 PhosphorImager (GE Healthcare). The relative intensities of the various degradation products were quantified using SAFA v1.1 software (Das et al. SAFA: Semi-automated footprinting analysis software for high-throughput quantification of nucleic acid footprinting experiments. RNA 2005; 11:344-354). The bands which modulated the most intensely were used to make KD estimates.

[2] = system: 67 glnA RNA; assay: In-line probing of 67 glnA RNA; type: binding, Synechococcus elongatus; settings: for binding by the 67 glnA aptamer: concentrations as high as 10 mM
From the text: as §1
as §2, with “estimates. In the cases where the concentrations of ligand used were insufficiently high to saturate RNA binding, the data was normalized to KD values that best explained the data assuming a standard one-to-one interaction.” for “estimates.”

[3] = system: 83 DP RNA; assay: In-line probing of 83 DP RNA (Downstream-peptide motif); type: binding, Synechococcus sp. CC9902; settings: for binding by the Downstream-peptide glutamine aptamer: stated in the discussion for both aptamer subtypes, concentration not given at place; for pKd: 1-to-1 interaction, read-out: apparent KD
From the text: as §1, §2

[4] = system: pfl RNA; assay: In-line probing experiments with a pfl RNA; type: binding, Clostridium acetobutylicum ATCC 824; settings: 1 mM except where noted
Experimental: Some riboswitches were tested for metabolite binding using in-line probing experiments (Regulski et al. In-line probing analysis of riboswitches. Methods Mol Biol 2008, 419:53-67). RNAs tested were transcribed in vitro from a DNA template using RNA polymerase T7. In the experiments described below, no modulation in gel patterns was observed that would indicate metabolite binding.
Experiments were performed with the following RNA encoded by Clostridium acetobutylicum ATCC 824:
The following metabolites were tested at 1 mM except where noted: AICAR riboside, AICAR ribotide, SAICAR, GAR, pyruvate, guanine (100 μM), hypoxanthine (40 μM), IMP, formate, THF, dihydrofolate, 5-formyl-THF, 10-formyl-THF, methylene-THF, methenyl-THF, methyl-THF, SAICAR, glutamate, glutamine, glycine, serine, aspartate, dUMP, homocysteine, SAM, AICA, CAIR, CoA, acetyl-CoA, alanine, NAD, NADH, NADP, NADPH, dCMP, histidine, D-ribose 5′-phosphate, adenine, D-ribose, NADH, SAICAR, CAIR, glycine, PRPR, ppGpp, cAMP, HMP, ATP (600 μM), CTP (600 μM), GTP (600 μM), UTP (600 μM), AMP, ADP, GMP, GDP, UMP, UDP, uridine, and tryptophan.

[5] = system: pfl RNA; assay: RNase protection assay (RNase T1 and V1) with pfl RNA; type: binding, Clostridium acetobutylicum ATCC 824; settings: shorter incubation time than in-line probing
Experimental: Due to the instability of PRPP, it was also tested in an RNase protection assay with RNase T1 and V1. The use of an RNase permits a shorter incubation time than used for in-line probing.

[6] = system: SAM-Chlorobi RNA (four RNAs with different 3′ ends); assay: In-line probing experiments with SAM-Chlorobi RNA; type: binding, Chlorobium tepidum TLS; settings: 1 mM
Experimental: Some riboswitches were tested for metabolite binding using in-line probing experiments (Regulski et al. In-line probing analysis of riboswitches. Methods Mol Biol 2008, 419:53-67). RNAs tested were transcribed in vitro from a DNA template using RNA polymerase T7. In the experiments described below, no modulation in gel patterns was observed that would indicate metabolite binding. […] Experiments were performed on the following four RNAs, encoded by Chlorobium tepidum TLS, which have different 3′ ends: Lowercase letters represent G nucleotides that were added to improve transcription yield. The following metabolites were tested at 1 mM: SAM, SAH, methionine, and homocysteine.

[7] = molecular target: SK209-52 RNA; assay: In-line probing of SK209-52 RNA (SAM/SAH motif); type: binding, Roseobacter sp. SK209-2-6; settings: SAM samples may contain breakdown product SAH, read-out: apparent dissociation constant (KD)
Experimental: RNA constructs were prepared by in vitro RNA transcription RNA using T7 RNA polymerase and the appropriate DNA templates that were created by overlap extension of synthetic DNA oligonucleotides using SuperScript II reverse transcriptase (Invitrogen) as instructed by the manufacturer. RNA transcripts were purified using denaturing (8 M urea) polyacrylamide gel electrophoresis (PAGE). RNAs were eluted from the gel, dephosphorylated using alkaline phosphatase and 5′ radiolabeled with [γ-32P] using methods reported previously (Wang et al. Riboswitches that sense S-adenosylhomocysteine and activate genes involved in coenzyme recycling. Mol Cell 2008, 29:691-702). 5′ 32P-labeled fragments resulting from in-line probing reactions were subjected to denaturing PAGE, imaged and analyzed as previously described (Wang et al. Riboswitches that sense S-adenosylhomocysteine and activate genes involved in coenzyme recycling. Mol Cell 2008, 29:691-702).

[8] = system: construct M3; assay: In-line probing of 67 glnA construct M3 (compensatory mutations); type: binding, Synechococcus elongatus
Experimental: (§3) Pairs of oligonucleotides were used in primer extension reactions to make full-length double-stranded DNA (dsDNA) products to use as templates for in vitro transcription reactions. Primers 1 and 2 were used for 67 glnA, 2 and 3 for Ml, 4 and 5 for M3, 1 and 6 for M2, 1 and 7 for M4, 8 and 9 for 83 DP, 8 and 10 for M5, and 8 and 11 for M6. A 100 μl solution containing 300 pmoles of each primer, 50 mM Tris-HCl (pH 8.3 at 23° C.), 75 mM KCl, 3 mM MgCl2, […] dithiothreitol (DTT), 1 mM of each of the four deoxynucleoside triphosphates (dNTPs), and 8 U/μl of SuperScript II Reverse Transcriptase (Invitrogen) was heated for 2 hours at 42° C. The full length dsDNA was then purified using the QIAquick PCR Purification Kit (QIAgen) following the manufacturer's protocol and was eluted in a volume of 50 […]
as §2, with “The gels were then dried and imaged using a Storm 820 PhosphorImager (GE Healthcare).” left out, “The bands which modulated the most intensely were used to make KD estimates.” left out

[9] = system: 67 glnA mutant RNA construct M1; assay: In-line probing of 67 glnA mutant M1 (disruptive mutations); type: binding, Synechococcus elongatus; settings: two disruptive mutations in P2 stem
Experimental: as §3
as §2, with “The gels were then dried and imaged using a Storm 820 PhosphorImager (GE Healthcare).” left out, “The bands which modulated the most intensely were used to make KD estimates.” left out

[10] = system: M5 RNA; assay: In-line probing of mutant 83 DP RNA M5 (disrupted pseudoknot); type: binding, Synechococcus sp. CC9902; settings: two disruptive mutations in the pseudoknot
Experimental: as §3
as §2, with “The gels were then dried and imaged using a Storm 820 PhosphorImager (GE Healthcare).” left out, “The bands which modulated the most intensely were used to make KD estimates.” left out

[11] = system: construct M4; assay: In-line probing of 67 glnA construct M4 (compensatory mutations); type: binding, Synechococcus elongatus
Experimental: as §3
as §2, with “The gels were then dried and imaged using a Storm 820 PhosphorImager (GE Healthcare).” left out, “The bands which modulated the most intensely were used to make KD estimates.” left out

[12] = system: 67 glnA mutant RNA construct M2; assay: In-line probing of 67 glnA mutant M2 (disruptive mutations); type: binding, Synechococcus elongatus; settings: two disruptive mutations in P3 stem
Experimental: as §3
as §2, with “The gels were then dried and imaged using a Storm 820 PhosphorImager (GE Healthcare).” left out, “The bands which modulated the most intensely were used to make KD estimates.” left out

Cc1ncc(COP(=O)(O)O)c(C=O)c1O [pyridoxal phosphate]
binding by the RNA [1]: rejected

CC(=O)OC[C@H](N)C(=O)O [O-acetyl-L-serine]
binding by the 67 glnA aptamer ([2]; in-line probing): rejected

CC(=O)CC[C@H](N)C(=O)O [(S)-2-amino-5-oxo-hexanoic acid]
binding by the 67 glnA aptamer ([2]; in-line probing): rejected | binding by the Downstream-peptide glutamine aptamer [3]: reject

O=P(O)(O)OC[C@H]1O[C@H](OP(=O)(O)OP(=O)(O)O)[C@H](O)[C@@H]1O [PRPP]
modulation in gel patterns that would indicate metabolite binding [4]: did not reveal evidence of binding | change in degradation patterns [5]: no change in degradation patterns was detected

N=C(N)NCCCCN [agmatine]
binding by the RNA [1]: rejected

O=C(O)CCCC(=O)O [glutaric acid]
binding by the RNA [1]: rejected

O=C(O)CCC(=O)O [succinate]
binding by the RNA [1]: rejected

NC(=O)CCC[C@H](N)C(=O)O [L-homoglutamine]
binding by the 67 glnA aptamer ([2]; in-line probing): rejected | binding by the Downstream-peptide glutamine aptamer [3]: reject

NC(=O)CC[C@H](N)CC(=O)O [L-β-homo glutamine]
binding by the 67 glnA aptamer ([2]; in-line probing): rejected

C[S+](CC[C@H](N)C(=O)[O-])C[C@H]1O[C@@H](n2cnc3c(N)ncnc32)[C@H](O)[C@@H]1O (stereo partly shown) [SAM, S-adenosylmethionine]
modulation in gel patterns that would indicate metabolite binding [6]: did not reveal binding | pKd [7]: 5.07 and ~5.07

NC(=O)CCCC(=O)O [5-amino-5-oxopentanoic acid]
binding by the 67 glnA aptamer ([2]; in-line probing): rejected | binding by the Downstream-peptide glutamine aptamer [3]: loss of binding

NCCCC[C@H](N)C(=O)O [L-lysine]
binding by the RNA [1]: rejected

O=CCCC(=O)O [succinic semialdehyde]
binding by the RNA [1]: rejected

N[C@@H](CCC(=O)O)C(=O)O [glutamate]
structural modulation ([2]; in-line probing, 100 mM glutamate as the primary buffering agent): no structural modulation was observed | binding by the RNA [1]: rejected | binding by the Downstream-peptide glutamine aptamer [3]: reject

NC(=O)C[C@H](N)C(=O)O [L-asparagine]
binding by the 67 glnA aptamer ([2]; in-line probing): rejected

NC(=O)CC[C@H](N)C(=O)O [L-glutamine]
pattern of RNA cleavage products ([2]; 1 mM glutamine added to in-line probing assay containing 100 mM glutamate): produced the pattern of RNA cleavage products expected for glutamine binding | pKd ([2]; curve expected for a 1-to-1 RNA-ligand interaction (FIG. 30C), read-out: KD): 3.24 | pKd ([2]; in-line probing, one-to-one interaction, read-out: apparent dissociation constant (KD)): ~3.24 | structural modulation in response to glutamine addition [8]: regain structural modulation | pKd [1]: ~3.82 | structural modulation upon addition of glutamine [9]: no modulation | binding to glutamine [10]: does not bind | pKd ([3]; listed as glutamine): ~2.30 | pKd [3]: 2.30 | structural modulation in response to glutamine addition [11]: regain structural modulation | structural modulation upon addition of glutamine [12]: no modulation

CC(C)(C)OC(=O)[C@@H](N)CCC(N)=O [L-glutamine t-butyl ester]
binding by the 67 glnA aptamer ([2]; in-line probing): rejected | binding by the Downstream-peptide glutamine aptamer [3]: neither Ala-Gln nor L-glutamine t-butyl ester are bound

NCCCCN [putrescine]
binding by the RNA [1]: rejected

Nc1ncnc2c1ncn2[C@@H]1O[C@H](CSCC[C@H](N)C(=O)O)[C@@H](O)[C@H]1O [SAH, S-adenosylhomocysteine]
modulation in gel patterns that would indicate metabolite binding [6]: did not reveal binding | pKd [7]: ~5.37

CCNC(=O)CC[C@H](N)C(=O)O [L-theanine]
binding by the 67 glnA aptamer ([2]; in-line probing): rejected

NC(=O)CC[C@@H](N)C(=O)O [D-glutamine]
affinity relative to its more common isomer (L-glutamine) ([2]; in-line probing): approximately 1/10 | fold tighter binding of L-glutamine compared to D-glutamine ([2]; in-line probing): 10 fold | binding to 83 DP RNA ([3]; concentrations up to 10 mM): no binding was detected

NCCCC(=O)O [γ-aminobutyric acid]
binding by the RNA [1]: rejected

O=C(O)CCC(=O)C(=O)O [2-oxoglutarate]
binding by the RNA [1]: rejected

C[C@H](N)C(=O)N[C@@H](CCC(N)=O)C(=O)O [Ala-Gln] (H-Ala-Gln-OH)
binding by the 67 glnA aptamer ([2]; in-line probing): rejected | binding by the Downstream-peptide glutamine aptamer [3]: neither Ala-Gln nor L-glutamine t-butyl ester are bound
